According to US11708338B2, “Substituted phenyl sulfonyl phenyl triazole thiones and uses thereof” (Neuropore Therapies, Inc., priority 2017, dated 2023):

Experiments:
Assay type in all cases: in vivo, mouse
[1] = test system: microtubule-associated protein 1A/1B-light chain 3 (LC3); assay: LC3 immunolabeling (IHC) in brain, 1 month administration study; conditions: L61 ASYN transgenic mice, 1, 5 or 10 mg/kg per day i.p.
Procedure: (§1) Alpha-synuclein (ASYN) is a neuronal protein whose dysregulation has been implicated in the pathogenesis of PD. The effects of Compound 1 on alpha-synuclein aggregation were assessed in both L61 ASYN transgenic and non-transgenic mice in a 1 month administration study. L61 ASYN transgenic mice (36 total mice, n=8-11 mice per treatment group) were injected (i.p.) with 1, 5, or 10 mg/kg of Compound 1 or a vehicle control (5% DMSO+20% Cremphor EL+0.9% normal saline) per day for 1 month. Non-transgenic mice (18 total mice, n=8-11 mice per treatment group) were used as a control and were injected daily (i.p.) with 10 mg/kg of Compound 1 or a vehicle control (5% DMSO+20% Cremphor EL+0.9% normal saline) per day for 1 month. At the end of one month, the mice were sacrificed, and immunohistochemical (IHC) detection of total alpha-synuclein deposits, insoluble alpha-synuclein deposits (PK+resistant), microtubule-associated protein 1A/1B-light chain 3 (LC3), and monomeric alpha-synuclein levels were assessed in the harvested brain tissues.

[2] = test system: glial fibrillary acidic protein (GFAP); assay: GFAP IHC staining in sections containing hippocampus, 1 month administration study; conditions: L61 ASYN transgenic mice
Procedure: Neuroinflammation is also associated with increased expression of glial fibrillary acidic protein (GFAP) in activated astrocytes, which is induced by a variety of molecules including pro-inflammatory mediators released from activated microglia (Saijo et al. 2009). Increased expression of glial fibrillary acidic protein (GFAP) represents astroglial activation and gliosis during neurodegeneration. (Brahmachari et al., 2006). The effects of Compound 1 on GFAP expression were assessed in both L61 ASYN transgenic and non-transgenic mice in a 1 month administration study. After 30 days, the mice were sacrificed, and IHC detection of GFAP was assessed in the harvested brain tissues.
The harvested brain tissues from treated mice were fixed (drop fixed in 4% PFA) and then sectioned into 40 micro thick sections using a vibratome. The representative sections containing the hippocampus were assessed for GFAP with standard immunohistochemistry staining. The general methods used for GFAP immunostaining follow those described in Rockenstein et al., J Neurosci Res. 2002, 68(5):568-78.

[3] = test system: total alpha-synuclein (ASYN); assay: IHC quantification of total alpha-synuclein deposits in brain, 1 month administration study; conditions: for reduction of total alpha-synuclein level in cortex as compared to vehicle control: L61 ASYN transgenic mice, FIG. 7A
Procedure: Multiple in vivo administration studies of Compound 1 were carried out in the Line 61 (L61) mThy1-alpha-synuclein transgenic mouse model of Parkinson's disease (PD). The mThy1-alpha-synuclein transgenic mouse model overexpresses wild-type human ASYN under the Thy-1 promoter studies (commonly referred to as Line 61 transgenic mice; Rockenstein et al., 2002). This transgenic mouse develops extensive accumulation of alpha-synuclein (ASYN) in areas relevant to PD (Rockenstein et al., 2002; Chesselet et al., 2012; Games et al., 2013), neurodegeneration including dopaminergic neurodegeneration, reduced dopamine (DA) and TH loss in the striatum (Masliah et al., 2000; Lam et al., 2011), and motor deficits (Fleming et al., 2004). Male transgenic and non-transgenic littermates (3-3.5 mo) were used for all in vivo studies presented here.
as §1
The quantification and IHC staining of total alpha-synuclein were performed using known techniques (Rockenstein et al., J Neurosci Res. 2002, 68(5):568-78; Tanji et al., Acta Neuropathol. 2010, 120, 145-154; Nuber et al., Brain. 2013, February; 136(Pt 2):412-32).

[4] = test system: Translocator Protein (18 kDa) (TSPO); assay: TSPO immunofluorescence in cortex of L61 mice, 3 month administration study; conditions: L61 ASYN transgenic mice, 5 and 10 mg/kg i.p. daily, 3 months
Procedure: Compound 1 was injected into L61 ASYN transgenic mice and non-transgenic control mice (i.p., once daily) at doses of 5 and 10 mg/kg for 3 months (79 total mice, n=14-17 mice per treatment group). The vehicle control consisted of a solution containing 5% DMSO+20% Cremphor EL+0.9% normal saline. The baseline grip strength of mice was evaluated prior to starting treatments for the 3 month study, and then re-evaluated following 70 days of treatment with vehicle or Compound 1 (5 or 10 mg/kg, i.p. daily).
Neuroinflammation is associated with increased expression of the 18-kDa translocator protein (TSPO), which is a marker for inflammation and is present on the mitochondria of activated microglia, astroglia and macrophages (Crawshaw and Robertson 2017). The effects of Compound 1 on the levels of Translocator Protein (18 kDa) (TSPO) were assessed in both L61 ASYN transgenic and non-transgenic mice in the aforementioned 3 month administration study. At the end of the study, the mice were sacrificed, and immunofluorescence (IF) detection of TSPO were assessed in the harvested brain tissues.
FIGS. 15A-B show the levels of TSPO immunolabeling in representative cross-sections of the cortex of the mice. […]

[5] = test system: insoluble alpha-synuclein deposits (PK+resistant); assay: IHC quantification of insoluble (PK+resistant) alpha-synuclein deposits in brain, 1 month administration study; conditions: L61 ASYN transgenic mice, FIG. 9A
Procedure: Multiple in vivo administration studies of Compound 1 were carried out in the Line 61 (L61) mThy1-alpha-synuclein transgenic mouse model of Parkinson's disease (PD). The mThy1-alpha-synuclein transgenic mouse model overexpresses wild-type human ASYN under the Thy-1 promoter studies (commonly referred to as Line 61 transgenic mice; Rockenstein et al., 2002). […]
Alpha-synuclein (ASYN) is a neuronal protein whose dysregulation has been implicated in the pathogenesis of PD. The effects of Compound 1 on alpha-synuclein aggregation were assessed in both L61 ASYN transgenic and non-transgenic mice in a 1 month administration study. […] At the end of one month, the mice were sacrificed, and immunohistochemical (IHC) detection of total alpha-synuclein deposits, insoluble alpha-synuclein deposits (PK+resistant), microtubule-associated protein 1A/1B-light chain 3 (LC3), and monomeric alpha-synuclein levels were assessed in the harvested brain tissues.
The quantification and IHC staining of PK-resistant alpha-synuclein were performed using known techniques (Rockenstein et al., J Neurosci Res. 2002, 68(5):568-78; Tanji et al., Acta Neuropathol. 2010, 120, 145-154; Nuber et al., Brain. 2013, February; 136(Pt 2):412-32).

[6] = L61 ASYN transgenic mice, 1, 5 or 10 mg/kg per day i.p.

With `O=S(=O)(c1ccc(-n2cn[nH]c2=S)cc1)c1ccc(Cl)c(C(F)(F)F)c1` [Compound 1, 4-(4-((4-chloro-3-(trifluoromethyl)phenyl)sulfonyl)phenyl)-2,4-dihydro-3H-1,2,4-triazole-3-thione] the “levels of LC3 immunolabeling in cortex” value [1] was “increased”, the “levels of LC3 immunolabeling in hippocampus (increase)” value [1] was “not” and the “levels of LC3 immunolabeling in striatum” value [1] was “increased”. For the same compound, the “GFAP levels, IHC staining intensity in representative images (FIG. 16)” value ([2]; 5 mg/kg or 10 mg/kg daily i.p.) was “reducing cortical levels of GFAP”, the “GFAP levels, quantification (FIG. 17)” value ([2]; 10 mg/kg dose i.p. daily) was “reduces the cortical GFAP levels in a statistically significant manner” and the “reduction of total alpha-synuclein level in cortex as compared to vehicle control” value (from here on “reduction of total alpha-synuclein level”) ([3]; 1 mg/kg per day i.p.) was 13%. The “reduction of total alpha-synuclein level” value ([3]; 5 mg/kg per day i.p.) was 32%, the “reduction of total alpha-synuclein level” value ([3]; 10 mg/kg per day i.p.) was 38% and the “total ASYN in the neuropil of cortex vs vehicle control” value [3, 6] was “reduced”. For the same compound, the “total ASYN in the neuropil of hippocampus vs vehicle control” value [3, 6] was “reduced”, the “total ASYN in the neuropil of striatum vs vehicle control” value [3, 6] was “reduced” and the “levels of TSPO in cortex vs vehicle control” value [4] was “significantly decreased”. The “reduction of PK-resistant alpha synuclein levels in cortex as compared to vehicle-treated mice” value ([5]; 5 mg/kg daily i.p.) was 37% and the “reduction of PK-resistant alpha synuclein levels in cortex as compared to vehicle-treated mice” value ([5]; 10 mg/kg daily i.p.) was 36%.
